Tests used:
A-375 = assay: Cytotoxicity against human A375 cells after 48 hrs by sulforhodamine B assay; format: functional, cell-based
LNCaP = assay: Cytotoxicity against human LNCAP cells after 48 hrs by sulforhodamine B assay; format: functional, cell-based
DU-145 = assay: cells; settings: Homo sapiens, DU-145, 48 h
Description: Cytotoxicity against human DU145 cells after 48 hrs by sulforhodamine B assay

[1] = Cytotoxicity against human WM164 cells after 48 hrs by sulforhodamine B assay; format: functional, cell-based
PPC-1 = assay: Cytotoxicity against human PPC1 cells after 48 hrs by sulforhodamine B assay; format: functional, cell-based
PC-3 = assay: cells; settings: Homo sapiens, PC-3, 48 h
Description: Cytotoxicity against human PC3 cells after 48 hrs by sulforhodamine B assay

[2] = Cytotoxicity against mouse B16-F1 cells after 48 hrs by sulforhodamine B assay; format: functional, cell-based

Row | SMILES | IC50 (A-375; Homo sapiens, A-375, 48 h) [µM] | IC50 (LNCaP) [µM] | IC50 (DU-145) [µM] | IC50 ([1]; Homo sapiens, WM164, 48 h) [µM] | IC50 (PPC-1; Homo sapiens, PPC-1, 48 h) [µM] | IC50 (PC-3) [µM] | IC50 ([2]; Mus musculus, B16-F1, 48 h) [µM] | IC50 (A-375; a-375) [µM] | IC50 ([1]; wm164) [µM] | IC50 ([2]; b16-f1) [µM] | IC50 (PPC-1; ppc-1) [µM]
1 | O=S(=O)(c1ccccc1)n1ccnc1-c1ccc(OCc2ccccc2)cc1 | > 10 | > 10 | > 10 | > 10 | > 10 | > 10 | > 10 | – | – | – | –
2 | O=C(c1ccc(F)cc1)c1cnc(-c2ccc(Cl)cc2)n1S(=O)(=O)c1ccccc1 | 0.088 | 0.048 | 0.064 | 0.07 | 0.054 | 0.076 | 0.107 | – | – | – | –
3 | O=C(c1ccc(F)cc1)c1c[nH]c(-c2ccccc2)n1 | – | 0.61 | 0.85 | – | 0.57 | 2.1 | 0.93 | – | – | – | –
4 | COc1cc(C(=O)c2cnc(-c3ccccc3C(F)(F)F)n2S(=O)(=O)c2ccccc2)cc(OC)c1OC | > 10 | > 10 | > 10 | > 10 | > 10 | > 10 | > 10 | – | – | – | –
5 | O=C(c1cccc(F)c1)c1c[nH]c(-c2ccccc2)n1 | > 10 | > 10 | > 10 | > 10 | > 10 | > 10 | > 10 | – | – | – | –
6 | Cc1cccc(C(=O)c2c[nH]c(-c3ccccc3)n2)c1 | > 10 | > 10 | > 10 | > 10 | > 10 | > 10 | > 10 | – | – | – | –
7 | Cc1ccc(C(=O)c2c[nH]c(-c3ccccc3)n2)cc1 | > 10 | > 10 | > 10 | > 10 | > 10 | > 10 | > 10 | – | – | – | –
8 | O=C(c1ccc(F)cc1)c1cnc(-c2ccccc2C(F)(F)F)n1S(=O)(=O)c1ccccc1 | > 10 | > 10 | > 10 | > 10 | > 10 | > 10 | > 10 | – | – | – | –
9 | O=C(c1cccc(F)c1)c1cnc(-c2ccccc2)n1S(=O)(=O)c1ccccc1 | > 10 | > 10 | > 10 | > 10 | > 10 | > 10 | > 10 | – | – | – | –
10 | COc1ccc(C(=O)c2cnc(-c3ccccc3)n2S(=O)(=O)c2ccccc2)cc1 | > 10 | > 10 | > 10 | > 10 | > 10 | > 10 | > 10 | – | – | – | –
11 | COc1ccc(-c2ncc(C(=O)c3cc(OC)c(OC)c(OC)c3)n2S(=O)(=O)c2ccccc2)cc1OC | 0.192 | 0.114 | 0.144 | 0.139 | – | 0.197 | 0.97 | – | – | – | –
12 | COc1cc(C(=O)c2c[nH]c(-c3ccc(OCc4ccccc4)cc3)n2)cc(OC)c1OC | 5.2 | 2.79 | 10 | 5.5 | 2.84 | 10 | – | – | – | – | –
13 | O=[N+]([O-])c1ccc(-c2nccn2S(=O)(=O)c2ccccc2)cc1 | > 10 | > 10 | > 10 | > 10 | > 10 | > 10 | > 10 | – | – | – | –
14 | COc1ccc(C(=O)c2c[nH]c(-c3ccccc3)n2)cc1OC | > 10 | > 10 | > 10 | > 10 | > 10 | > 10 | > 10 | – | – | – | –
15 | COc1cc(C(=O)c2c[nH]c(-c3ccc(F)cc3)n2)cc(OC)c1OC | 0.205 | 0.098 | 0.132 | 0.073 | 0.081 | 0.169 | 0.32 | – | – | – | –
16 | CN(C)c1ccc(-c2nc(C(=O)c3ccc(F)cc3)c[nH]2)cc1 | – | 0.057 | – | 0.062 | 0.045 | 0.081 | – | – | – | – | –
17 | O=S(=O)(c1ccccc1)n1ccnc1-c1ccccc1 | > 10 | > 10 | > 10 | > 10 | > 10 | > 10 | > 10 | – | – | – | –
18 | CN(C)c1ccc(-c2ncc(C(=O)c3ccc(F)cc3)n2S(=O)(=O)c2ccccc2)cc1 | 0.055 | 0.056 | 0.074 | 0.056 | 0.048 | 0.083 | 0.242 | – | – | – | –
19 | COc1ccc(-c2ncc(C(=O)c3ccc(F)cc3)n2S(=O)(=O)c2ccccc2)cc1OC | 0.96 | 1.92 | 3.31 | 1.4 | 1.44 | 10 | 2 | – | – | – | –
20 | O=C(c1ccc(F)cc1)c1cnc(-c2ccc(OCc3ccccc3)cc2)n1S(=O)(=O)c1ccccc1 | 0.064 | 0.035 | 0.058 | 0.048 | 0.038 | 0.075 | 0.11 | – | – | – | –
21 | O=C(c1ccc(F)cc1)c1cnc(-c2ccccc2)n1S(=O)(=O)c1ccccc1 | 0.63 | 0.573 | 0.846 | 0.596 | 0.575 | 2.23 | 0.946 | – | – | – | –
22 | COc1ccc(-c2nc(C(=O)c3cc(OC)c(OC)c(OC)c3)c[nH]2)cc1OC | – | – | – | 0.191 | – | – | 1.4 | – | – | – | –

Row | SMILES | IC50 (A-375; Homo sapiens, A-375, 48 h) [µM] | IC50 (LNCaP) [µM] | IC50 (DU-145) [µM] | IC50 ([1]; Homo sapiens, WM164, 48 h) [µM] | IC50 (PPC-1; Homo sapiens, PPC-1, 48 h) [µM] | IC50 (PC-3) [µM] | IC50 ([2]; Mus musculus, B16-F1, 48 h) [µM] | IC50 (A-375; a-375) [µM] | IC50 ([1]; wm164) [µM] | IC50 ([2]; b16-f1) [µM] | IC50 (PPC-1; ppc-1) [µM]
23 | COc1ccc(C(=O)c2c[nH]c(-c3ccccc3)n2)cc1 | > 10 | > 10 | > 10 | > 10 | > 10 | > 10 | > 10 | – | – | – | –
24 | O=C(c1ccc(F)cc1)c1c[nH]c(-c2ccc(O)cc2)n1 | – | 10 | > 10 | > 10 | > 10 | > 10 | > 10 | – | – | – | –
25 | O=C(c1cc(O)c(O)c(O)c1)c1c[nH]c(-c2ccc(Cl)cc2)n1 | 3.9 | 10 | 10 | 2.1 | > 10 | 10 | 1.81 | – | – | – | –
26 | COc1cc(C(=O)n2ccnc2-c2ccccc2)cc(OC)c1OC | > 10 | > 10 | > 10 | > 10 | > 10 | > 10 | > 10 | – | – | – | –
27 | COc1cc(C(=O)c2c[nH]c(-c3ccc(C(F)(F)F)cc3)n2)cc(OC)c1OC | 0.163 | 0.134 | 0.174 | – | 0.11 | 0.127 | 0.468 | – | – | – | –
28 | Cc1ccc(-c2nc(C(=O)c3ccc(F)cc3)c[nH]2)cc1 [listing 1 of 2 here] | 0.142 | 0.045 | 0.078 | 0.156 | 0.054 | 0.065 | 0.222 | – | – | – | –
29 | COc1cc(C(=O)c2c[nH]c(-c3ccc(Cl)cc3)n2)cc(OC)c1OC | 0.043 | 0.024 | 0.036 | – | 0.026 | 0.035 | 0.168 | – | – | – | –
30 | COc1cc(C(=O)c2cnc(-c3cc(OC)c(OC)c(OC)c3)n2S(=O)(=O)c2ccccc2)cc(OC)c1OC | > 10 | > 10 | > 10 | > 10 | > 10 | > 10 | > 10 | – | – | – | –
31 | COc1ccc(-c2nc(C(=O)c3cc(OC)c(OC)c(OC)c3)c[nH]2)cc1 | – | 0.031 | 0.048 | – | 0.034 | 0.045 | 0.108 | – | – | – | –
32 | COc1cc(C(=O)c2c[nH]c(-c3cc(OC)c(OC)c(OC)c3)n2)cc(OC)c1OC | 4.8 | > 10 | > 10 | > 10 | > 10 | > 10 | > 10 | – | – | – | –
33 | COc1cc(C(=O)c2cnc(-c3ccc(N(C)C)cc3)n2S(=O)(=O)c2ccccc2)cc(OC)c1OC | 0.162 | 0.062 | 0.099 | 0.308 | – | 0.093 | 1.2 | – | – | – | –
34 | O=C(c1cc(O)c(O)c(O)c1)c1c[nH]c(-c2cc(O)c(O)c(O)c2)n1 | > 10 | > 10 | > 10 | > 10 | > 10 | > 10 | > 10 | – | – | – | –
35 | Cc1ccc(C(=O)c2cnc(-c3ccccc3)n2S(=O)(=O)c2ccccc2)cc1 | > 10 | > 10 | > 10 | > 10 | > 10 | > 10 | > 10 | – | – | – | –
36 | COc1cc(C(=O)c2c[nH]c(-c3ccc(O)cc3)n2)cc(OC)c1OC | 1.6 | – | – | 1.8 | – | – | 2.4 | – | – | – | –
37 | COc1ccc(C(=O)n2ccnc2-c2ccccc2)cc1 | > 10 | > 10 | > 10 | > 10 | > 10 | > 10 | > 10 | – | – | – | –
38 | Cc1ccc(-c2nc(C(=O)c3ccc(F)cc3)c[nH]2)cc1 [listing 2 of 2 here] | – | – | – | – | – | – | – | 0.108 | 0.112 | 0.297 | –
39 | O=C(c1cc(O)c(O)c(O)c1)c1c[nH]c(-c2ccc(O)c(O)c2)n1 | > 10 | > 10 | > 10 | > 10 | > 10 | > 10 | > 10 | – | – | – | –
40 | COc1ccc(-c2nc(C(=O)c3ccc(F)cc3)c[nH]2)cc1OC | – | 2.53 | 10 | 1.4 | 2.17 | 10 | 4.21 | – | – | – | –
41 | COc1cc(C(=O)c2c[nH]c(-c3ccc(C)cc3)n2)cc(OC)c1OC | – | – | – | 0.008 | – | – | 0.046 | – | – | – | 0.011
42 | Cc1ccc(-c2ncc(C(=O)c3ccc(F)cc3)n2S(=O)(=O)c2ccccc2)cc1 | – | 0.055 | 0.08 | 0.107 | 0.057 | 0.08 | 0.287 | – | – | – | –
43 | COc1cc(OC)cc(C(=O)c2c[nH]c(-c3ccccc3)n2)c1 | 2.8 | 3.6 | 2.6 | – | 2.1 | 3.2 | 5.4 | – | – | – | –
